Measurements reported in patent US20160038454A1, “INTRAVENOUS FORMULATIONS OF […] AS IMMUNOMODULATORS AND […] AGENTS” (priority 2013, published 2016).
Converted amounts (≈) assume the structure as drawn.

Assays:
[1] = PG796(MRx102) purity (peak area %) / stability in emulsions; format: physicochemical
Protocol: (§1) Pharmaceutical emulsions are typically prepared at neutral to slightly alkaline pH since they are stabilized by electrostatic repulsion between droplets imparted by pH-sensitive anionic surfactants, such as phosphatidyl ethanolamine, free fatty acid salts, and cholate. However, it was possible that this pH range could be suboptimal for the chemical stability of PG796(MRx102). To test this, emulsions were prepared at different pH values ranging from 4 to 8. Buffers were included to control the pH, and the non-pH sensitive surfactant, sodium dodecyl sulfate was used in place of sodium cholate to assure a negative charge even in the low pH emulsions. All of the formulations were reasonably stable for up to 2 weeks at room temperature. […]

[2] = test system: NF-κB, Mcl-1 and XIAP; conditions: cited from earlier work
[3] = PG796(MRx102) solubility in emulsion formulations; format: physicochemical; conditions: emulsion formulation, aqueous with cosolvent or surfactant or cyclodextrin
Protocol: Various ratios of the nonionic surfactants polysorbate 80 (a.k.a. Tween 80) and Span 80 were explored, and a formulation was prepared and tested as follows. […] The results of this preliminary experiment were encouraging in that a reasonably high solubility was obtained in a formulation containing almost 70% water.
Emulsion formulations were prepared using a probe sonicator to disperse the oil phase in the aqueous phase to form a creamy opaque suspension.
Typical emulsion formulations consist of 10-30% triglyceride, most commonly SBO, dispersed with 0.5-2% phospholipids in an aqueous phase, which contains glycerin as a tonicity agent. […] Additionally, PEG-400 and ethanol were incorporated into some of the formulations to decrease the polarity of the aqueous phase to enhance solubility. Sodium cholate was included in some formulations as a co-surfactant. Solubility of at least 1 mg/mL was obtained in all of the formulations. In each case some loss of potency was observed after eight days of storage, but the majority of the original potency was maintained.
as §1

[4] = emulsion target pH 4.0 (acetate)
[5] = emulsion target pH 5.0 (acetate)
[6] = emulsion target pH 6.0 (histidine)
[7] = emulsion target pH 7.0 (phosphate)

CC(C)[C@]12O[C@H]1[C@@H]1O[C@]13[C@]1(O[C@H]1C[C@H]1c4c(C(=O)c5ccccc5)oc(OC(=O)c5ccccc5)c4CC[C@@]13C)[C@@H]2O [PG796, 18-deoxo-19-dehydro-18-benzoyloxy-19-benzoyl triptolide]
PG796 (MRx102) Purity ([1]; emulsion target pH 4.0 (acetate), 0 hr): 98.9 peak area % | PG796 (MRx102) Purity ([1]; emulsion target pH 4.0 (acetate), 1 wk): 98.9 peak area % | PG796 (MRx102) Purity ([1]; emulsion target pH 4.0 (acetate), 2 wk): 97.2 peak area % | PG796 (MRx102) Purity ([1]; emulsion target pH 4.0 (acetate), 24 hr): 99.3 peak area % | PG796 (MRx102) Purity ([1]; emulsion target pH 5.0 (acetate), 0 hr): 99.2 peak area % | PG796 (MRx102) Purity ([1]; emulsion target pH 5.0 (acetate), 1 wk): 99.1 peak area % | PG796 (MRx102) Purity ([1]; emulsion target pH 5.0 (acetate), 2 wk): 98.3 peak area % | PG796 (MRx102) Purity ([1]; emulsion target pH 5.0 (acetate), 24 hr): 99.4 peak area % | PG796 (MRx102) Purity ([1]; emulsion target pH 6.0 (histidine), 0 hr): 99.2 peak area % | PG796 (MRx102) Purity ([1]; emulsion target pH 6.0 (histidine), 1 wk): 98.9 peak area % | PG796 (MRx102) Purity ([1]; emulsion target pH 6.0 (histidine), 2 wk): 98.8 peak area % | PG796 (MRx102) Purity ([1]; emulsion target pH 6.0 (histidine), 24 hr): 99.2 peak area % | PG796 (MRx102) Purity ([1]; emulsion target pH 7.0 (phosphate), 0 hr): 99.4 peak area % | PG796 (MRx102) Purity ([1]; emulsion target pH 7.0 (phosphate), 1 wk): 98.8 peak area % | PG796 (MRx102) Purity ([1]; emulsion target pH 7.0 (phosphate), 2 wk): 91.0 peak area % | PG796 (MRx102) Purity ([1]; emulsion target pH 7.0 (phosphate), 24 hr): 99.1 peak area % | PG796 (MRx102) Purity ([1]; emulsion target pH 8.0 (Tris), 0 hr): 98.7 peak area % | PG796 (MRx102) Purity ([1]; emulsion target pH 8.0 (Tris), 1 wk): 99.1 peak area % | PG796 (MRx102) Purity ([1]; emulsion target pH 8.0 (Tris), 2 wk): 98.3 peak area % | PG796 (MRx102) Purity ([1]; emulsion target pH 8.0 (Tris), 24 hr): 99.2 peak area % | pH dependence of stability of PG796(MRx102) in the emulsion ([1]; pH 4 to 8): not pH-dependent | effect on mRNA levels, NF-κB, Mcl-1 and XIAP [2]: reduced mRNA levels, reduced NF-κB and reduced Mcl-1 and XIAP | solubility at 0 hr [3, 4]: 870 µg/mL (≈ 1530 µM) | solubility at 1 wk [3, 4]: 1000 µg/mL (≈ 1760 µM) | solubility at 2 wk [3, 4]: 848 µg/mL (≈ 1490 µM) | solubility at 24 hr [3, 4]: 917 µg/mL (≈ 1610 µM) | solubility at 0 hr [3, 5]: 1010 µg/mL (≈ 1770 µM) | solubility at 1 wk [3, 5]: 972 µg/mL (≈ 1710 µM) | solubility at 2 wk [3, 5]: 910 µg/mL (≈ 1600 µM) | solubility at 24 hr [3, 5]: 922 µg/mL (≈ 1620 µM) | solubility at 0 hr [3, 6]: 1090 µg/mL (≈ 1920 µM) | solubility at 1 wk [3, 6]: 948 µg/mL (≈ 1670 µM) | solubility at 2 wk [3, 6]: 850 µg/mL (≈ 1490 µM) | solubility at 24 hr [3, 6]: 890 µg/mL (≈ 1570 µM) | solubility at 0 hr [3, 7]: 996 µg/mL (≈ 1750 µM) | solubility at 1 wk [3, 7]: 760 µg/mL (≈ 1340 µM) | solubility at 2 wk [3, 7]: 822 µg/mL (≈ 1450 µM) | solubility at 24 hr [3, 7]: 849 µg/mL (≈ 1490 µM) | solubility at 0 hr ([3]; emulsion target pH 8.0 (Tris)): 929 µg/mL (≈ 1630 µM) | solubility at 1 wk ([3]; emulsion target pH 8.0 (Tris)): 1040 µg/mL (≈ 1830 µM) | solubility at 2 wk ([3]; emulsion target pH 8.0 (Tris)): 930 µg/mL (≈ 1640 µM) | solubility at 24 hr ([3]; emulsion target pH 8.0 (Tris)): 929 µg/mL (≈ 1630 µM) | solubility ([3]; preliminary emulsion: 29.4% GTO, 1.65% Span 80, 0.31% Tween 80, 68.6% water): 681 µg/mL (≈ 1200 µM)
